Experimental data from PubChem BioAssay (NCI).
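Here, GI50 denotes the concentration required for 50% inhibition of growth. TGI marks complete inhibition of growth.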

What was measured:
Assay in all cases: NCI-60 cell line screen, 384-well format
[1] = system: M14 melanoma
[2] = system: NCI-H322M lung
[3] = system: A498 renal
[4] = system: NCI-H226 lung
[5] = system: U251 glioblastoma
[6] = system: SK-MEL-28 melanoma
[7] = system: SNB-75 CNS
[8] = system: SK-MEL-2 melanoma
[9] = system: UACC-257 melanoma
[10] = system: SK-OV-3 ovarian
[11] = system: NCI-H522 lung
[12] = system: RPMI-8226 leukemia
[13] = system: SF-295 CNS
[14] = system: OVCAR-3 ovarian
[15] = system: HCT-116 colon
[16] = system: SF-268 CNS
[17] = system: NCI-H23 lung
[18] = system: OVCAR-5 ovarian
[19] = system: MCF7 breast
[20] = system: MDA-MB-231 breast
[21] = system: IGROV1 ovarian
[22] = system: OVCAR-4 ovarian
[23] = system: BT-549 breast
[24] = system: UACC-62 melanoma
[25] = system: OVCAR-8 ovarian
[26] = system: CCRF-CEM leukemia
[27] = system: SN12C renal
[28] = system: KM12 colon
[29] = system: CAKI-1 renal
[30] = system: HCT-15 colon
[31] = system: ACHN renal
[32] = system: MDA-MB-435 melanoma
[33] = system: SW-620 colon
[34] = system: UO-31 renal
[35] = system: EKVX NSCLC
[36] = system: NCI/ADR-RES ovarian
[37] = system: T-47D breast
[38] = system: HT29 colon
[39] = system: SNB-19 CNS
[40] = system: A549 NSCLC
[41] = system: HOP-92 NSCLC
[42] = system: K-562 leukemia
[43] = system: PC-3 prostate
[44] = system: MALME-3M melanoma
[45] = system: MDA-MB-468 breast
[46] = system: 786-0 renal
[47] = system: RXF 393 renal
[48] = system: HOP-62 NSCLC
[49] = system: HS 578T breast
[50] = system: SF-539 CNS
[51] = system: LOX IMVI melanoma

COc1cccc2c1C(=O)c1c(O)c3c(c(O)c1C2=O)C[C@@](O)(C(C)=O)C[C@@H]3OC1CC(N)C(O)C(C)O1 (stereo partly drawn)
GI50 [1]: 21.8 nM | TGI [1]: 135 nM | GI50 [2]: 152 nM | TGI [2]: 433 nM | GI50 [3]: 28.2 nM | TGI [3]: 199 nM | GI50 [4]: 33.5 nM | TGI [4]: 282 nM | GI50 [5]: 10 nM | TGI [5]: 1080 nM | GI50 [6]: 103 nM | TGI [6]: 229 nM | GI50 [7]: 108 nM | TGI [7]: 269 nM | GI50 [8]: 71 nM | TGI [8]: 142 nM | GI50 [9]: 90.2 nM | TGI [9]: 216 nM | GI50 [10]: 36.7 nM | TGI [10]: 181 nM | TGI [11]: 90.9 nM | TGI [12]: 20.9 nM | GI50 [13]: 32.1 nM | TGI [13]: 114 nM | GI50 [14]: 78.1 nM | TGI [14]: 566 nM | GI50 [15]: 14.6 nM | TGI [15]: 1970 nM | GI50 [16]: 25.4 nM | TGI [16]: 181 nM | GI50 [17]: 21.9 nM | TGI [17]: 69.3 nM | GI50 [18]: 105 nM | TGI [18]: 325 nM | GI50 [19]: 21.5 nM | TGI [19]: 10.5 µM | GI50 [20]: 24.3 nM | TGI [20]: 133 nM | GI50 [21]: 118 nM | TGI [21]: 281 nM | GI50 [22]: 165 nM | TGI [22]: 701 nM | GI50 [23]: 17.9 nM | TGI [23]: 94.7 nM | GI50 [24]: 11.5 nM | TGI [24]: 115 nM | GI50 [25]: 37 nM | TGI [25]: 197 nM | TGI [26]: 16.9 nM | GI50 [27]: 24.2 nM | TGI [27]: 160 nM | GI50 [28]: 15.9 nM | TGI [28]: 908 nM | GI50 [29]: 48.6 nM | TGI [29]: 440 nM | GI50 [30]: 51.7 nM | TGI [30]: 1010 nM | GI50 [31]: 69.5 nM | TGI [31]: 265 nM | GI50 [32]: 103 nM | TGI [32]: 260 nM | TGI [33]: 201 nM | GI50 [34]: 303 nM | TGI [34]: 1470 nM | GI50 [35]: 283 nM | TGI [35]: 1650 nM | GI50 [36]: 1520 nM | TGI [36]: 3.39 µM | GI50 [37]: 36.8 nM | TGI [37]: 2140 nM | GI50 [38]: 29.2 nM | TGI [38]: 148 nM | GI50 [39]: 31.8 nM | TGI [39]: 13.1 µM | GI50 [40]: 36.9 nM | TGI [40]: 170 nM | GI50 [41]: 60 nM | TGI [41]: 3.14 µM | GI50 [42]: 14.6 nM | TGI [42]: 138 nM | GI50 [43]: 85.9 nM | TGI [43]: 282 nM | GI50 [44]: 44.5 nM | TGI [44]: 176 nM | GI50 [45]: 10.7 nM | TGI [45]: 24 nM | GI50 [46]: 31 nM | TGI [46]: 1200 nM | GI50 [47]: 102 nM | TGI [47]: 237 nM | GI50 [48]: 19.4 nM | TGI [48]: 73.8 nM | GI50 [49]: 45.4 nM | TGI [49]: 234 nM | GI50 [50]: 13.5 nM | TGI [50]: 115 nM | GI50 [51]: 19.3 nM | TGI [51]: 135 nM
